Earlier results on 1 compound are cited in patent US20250320459A1, “FUNCTIONALIZED MOLECULAR LAYERS AND SCAFFOLDS, AND METHODS OF PREPARATION AND USE THEREOF” (PURDUE RESEARCH FOUNDATION, priority 2022, published 2025).

In the data set the target is WGA.

Molecules are shown by their SMILES.

On to `CC(=O)N[C@H]1C(O)O[C@H](CO)[C@@H](O)[C@@H]1O` (stereo partly drawn) [GlcNAc, N-acetyl-D-glucosamine], for which the “KD, monovalent interactions between WGA and GlcNAc” value (monovalent) was “micromolar to millimolar range”. In addition, the “KD, multivalent interactions between WGA and GlcNAc” value (multivalent) is “nanomolar range”.
